According to patent US10821093B2, “Antibacterial microelement chelates and the use thereof in animal feeds” (priority 2012, dated 2020):

Key:
[1] = test system: Escherichia coli; experiment: MIC, liquid culture dilution (single chelates and cross-dilution combinations); format: cell-based
[2] = test system: Salmonella enterica; experiment: as above; format: cell-based, Salmonella enterica subp. Enterica serovar enteritidis
[3] = test system: Staphylococcus aureus; experiment: MIC, liquid culture dilution; format: cell-based
[4] = test system: Streptococcus agalactiae; experiment: MIC, liquid culture dilution; format: cell-based
[5] = test system: Clostridium perfringens; format: cell-based
[6] = test system: Brachyspira hyodysenteriae; experiment: MIC (single chelates and combinations)
[7] = test system: LACTIC ACID PRODUCERS; experiment: MIC, liquid culture dilution; format: cell-based
[8] = test system: Saccharomyces cerevisiae; experiment: MIC, liquid culture dilution; format: cell-based

Molecule	Minimal inhibitory concentration (MIC) [1]	Minimal inhibitory concentration (MIC) [2]	Minimal inhibitory concentration (MIC) [3]	Minimal inhibitory concentration (MIC) [4]	Minimal inhibitory concentration (MIC) [5]	Minimal inhibitory concentration (MIC) [6]	Minimal inhibitory concentration (MIC) [7]	Minimal inhibitory concentration (MIC) [8]
NC(=O)CC(N)C(=O)[O][Cu]([NH3+])([NH3+])[O]C(=O)C(N)CC(N)=O (stereo not shown) [Cu diammine bis-asparaginate]	1025 ppm	2050 ppm	1025 ppm	16 ppm	32 ppm			
N.N.NC(CCC(=O)O)C(=O)[O-].NC(CCC(=O)O)C(=O)[O-].[Zn+2] (stereo not shown) [Zn diammine bis-glutamate]			42 ppm	21 ppm	334 ppm			
O=C(O)CN1CCN(CC(=O)O)CC(=O)[O][Cu][O]C(=O)C1 [Cu ethylenediamine tetraacetic acid]					160 ppm	320 ppm		
Zn diammine citrate	48 ppm	98 ppm	49 ppm	49 ppm				
O=C([O-])CN(CCN(CC(=O)O)CC(=O)O)CC(=O)[O-].[Zn+2] [Zn ethylenediamine-tetraacetic acid]					1000 ppm	450 ppm		
NC(CCC(=O)[O-])C(=O)[O-].[Zn+2] (stereo not shown) [Zn mono-glutamate]	70 ppm		36 ppm	18 ppm	475 ppm			
[NH3+][Cu]([NH3+])([O]C(=O)C(O)CC(=O)O)[O]C(=O)C(O)CC(=O)O (stereo not shown) [Cu diammine bis-malate]	262 ppm		262 ppm	131 ppm	65 ppm	143 ppm		
Zn diammine aspartate	92 ppm	184 ppm						
N[C@@H](CC(=O)[O-])C(=O)[O-].[Zn+2] [Zn mono-aspartate]	74 ppm	74 ppm						
Zn diammine tri-aspartate	114 ppm	228 ppm						
O=C(O)CC(O)C(=O)[O-].O=C(O)CC(O)C(=O)[O-].[Zn+2] (stereo not shown) [Zn bis-malate]	280 ppm	360 ppm					600 ppm	600 ppm
Cu nitrolo triacetic acid					>4000 ppm	450 ppm		
O=C(O)c1ccccc1[O-].O=C(O)c1ccccc1[O-].[Zn+2] [Zn bis-salycilate]	>4000 ppm	>4000 ppm			>4000 ppm			
Zn(H2O) tri-glutamate	70 ppm		35 ppm	17 ppm	281 ppm			
CCCCC(=O)[O-].CCCCC(=O)[O-].O.[Zn+2] [Zn(H2O) bis-valerianate]	120 ppm	120 ppm						
Zn(H2O) bis-glutamate			21 ppm	10 ppm	331 ppm			
Zn(H2O) tri-aspartate	75 ppm	70 ppm						
Zn diammine bis-histidinate	>4000 ppm	>4000 ppm	>4000 ppm	12 ppm	1950 ppm			
Cu diammine tri-asparaginate	1400 ppm	>4000 ppm	1400 ppm	43 ppm	44 ppm			
Zn diammine tri-asparaginate			114 ppm	14 ppm	456 ppm			
C[C@H](N)C(=O)[O-].C[C@H](N)C(=O)[O-].O.[Zn+2] [Zn(H2O) bis-alaninate]	100 ppm	110 ppm			>4000 ppm	>4000 ppm		
Zn diammine bis-asparaginate			62 ppm	15 ppm	494 ppm			
Zn asparaginate			18 ppm	37 ppm	297 ppm			
[NH2][Zn]1([NH2])[O]C(=O)CN(CC(=O)O)CCN(CC(=O)O)CC(=O)[O]1 [Zn diamino ethylenediamine tetraacetic acid]					100 ppm	>4000 ppm		

Molecule	Minimal inhibitory concentration (MIC) [1]	Minimal inhibitory concentration (MIC) [2]	Minimal inhibitory concentration (MIC) [3]	Minimal inhibitory concentration (MIC) [4]	Minimal inhibitory concentration (MIC) [5]	Minimal inhibitory concentration (MIC) [6]	Minimal inhibitory concentration (MIC) [7]	Minimal inhibitory concentration (MIC) [8]
NC(=O)C[C@H](N)C(=O)[O-].NC(=O)C[C@H](N)C(=O)[O-].[Zn+2] [Zn bis-asparaginate]			26 ppm	51 ppm	412 ppm			
Zn diammine asparaginate			46 ppm	23 ppm	369 ppm			
NC(Cc1cnc[nH]1)C(=O)[O-].NC(Cc1cnc[nH]1)C(=O)[O-].[Zn+2] (stereo not shown) [Zn bis-histidinate]	>4000 ppm	>4000 ppm	>4000 ppm	4 ppm	650 ppm			
Cu diammine tri-glutamate			487 ppm	8 ppm	30 ppm			
Zn malate [Zn(H2O)-bis-malate]	90 ppm	120 ppm	160 ppm	180 ppm	360 ppm	4400 ppm	500 ppm	600 ppm
Cu diammine glutamate	688 ppm			11 ppm	43 ppm			
O.O.O=C([O-])CN(CCN(CC(=O)[O-])CC(=O)O)CC(=O)O.[Cu+2] [Cu(H2O)2-ethylenediamine tetraacetic acid]					60 ppm	100 ppm		
Zn diaminonitrolo triacetic acid					400 ppm	600 ppm		
O=C([O-])CN(CC(=O)[O-])CC(=O)O.[Zn+2] [Zn nitrolotriacetate]	40 ppm	40 ppm						
CCC(=O)[O-].CCC(=O)[O-].O.[Zn+2] [Zn(H2O) bis-propionate]	160 ppm	160 ppm						
Cu diaminonitrolo triacetic acid					120 ppm	200 ppm		
N.N.NC(CCC(=O)O)C(=O)[O-].NC(CCC(=O)O)C(=O)[O-].[Cu+2] (stereo not shown) [Cu diammine bis-glutamate]			387 ppm	24 ppm	97 ppm			
Zn triammine tri-glutamate			58 ppm	15 ppm	469 ppm			
Zn(H2O) bis-aspartate	103 ppm							
Zn diammine glutamate	167 ppm		61 ppm	15 ppm	245 ppm			
Cu diammine asparaginate	620 ppm	620 ppm	620 ppm	20 ppm	38 ppm			
Zn tri-asparaginate			18 ppm	19 ppm	450 ppm			
CCCC(=O)[O-].CCCC(=O)[O-].O.[Zn+2] [Zn(H2O) bis-butyrate]	110 ppm	110 ppm						
Zn(NH4)4(glycine)2 [Zn tetraammine bis-glycinate]	140 ppm	140 ppm						
O.O=C(O)CC(O)C(=O)[O-].O=C(O)CC(O)C(=O)[O-].[Cu+2] (stereo not shown) [Cu(H2O) bis-malate]	120 ppm	210 ppm			50 ppm	88 ppm		
N.N.NC(CC(=O)O)C(=O)[O-].NC(CC(=O)O)C(=O)[O-].[Zn+2] (stereo not shown) [Zn diammine bis-aspartate]	123 ppm	247 ppm						
Zn (H2O)2-ethylenediamine tetraacetic acid					400 ppm	320 ppm		
O=C([O-])c1ccccc1.O=C([O-])c1ccccc1.[Zn+2] [Zn bis-benzoate]	>4000 ppm	>4000 ppm			>4000 ppm			
